Molecules are shown by their SMILES.

One assay relates to Ba/F3 cells with the wildtype EGFR. The assay can be described thus: Ba/F3 proliferation assay (CellTiter-Glo viability), wildtype EGFR with EGF. It is filed as cell-based, murine. To be noted: Mus musculus, BaF3, Ba/F3 EGFR wt. The method, then: Ba/F3 Cell Model Generation and Proliferation Assays
(§1) Plasmids containing EGFR mutants were obtained from GeneScript. To generate EGFR-dependent […] were transduced with retroviruses containing vectors that harbor EGFR isoforms. Platinum-E cells (Cell Biolabs) were used for retrovirus packaging. Retrovirus was added to Ba/F3 cells. To ensure infection, 4 μg/mL polybrene was added and cells were spinfected. Infection efficiency was confirmed by measuring GFP-positive cells using a cell analyzer. Cells with an infection efficiency of 10% to 20% were further cultivated and puromycin selection with 1 μg/mL was initiated. As a control, parental Ba/F3 cells were used to show selection status. Selection was considered successful when parental Ba/F3 cells cultures died. To evaluate the transforming potential of EGFR mutations, the growth medium was no longer supplemented with IL-3. Ba/F3 cells harboring the empty vector were used as a control. A switch from IL-3 to EGF was performed for Ba/F3 cells with the wildtype EGFR known for its dependency on EGF ligand. Approximately ten days before conducting the experiments, puromycin was left out. For proliferation assays (data in table 13), Ba/F3 cells were seeded into 96-well plates at 5×10^3 cells/100 μL in growth media. Compounds were added by using a HP D3000 Digital Dispenser. All treatments were performed in technical triplicates. Treated cells were incubated for 72 h at 37° C. with 5% CO2. CellTiter-Glo® Luminescent Cell Viability Assay (Promega) was performed and chemoluminescence was measured by using the multilabel Plate Reader VICTOR X4. The raw data were imported into and analyzed with the Boehringer Ingelheim proprietary software MegaLab (curve fitting based on the program PRISM, GraphPad Inc.).
In general terms: Cellular ATP, detected with luciferase, serves as a proxy for viable cell number.
Usually IC50 stands for the midpoint of a concentration-inhibition curve. `COc1cc2ncnc(Nc3ccc(F)c(Cl)c3)c2cc1NC(=O)/C=C/CN1CCCCC1` [dacomitinib, reference compound]: the IC50 amounted to 0.64 nM.
The same measure, in the same setting: then `Cc1cc(C(=O)Nc2nc3cccc(Cl)c3n2[C@@H]2CCCCN(C(=O)/C=C/CN(C)C)C2)ccn1` [nazartinib, reference compound], with 95.1 nM.

For a further assay, the system named is EGFR M+ NSCLC patients.
Test: not given
To be noted: EGFR M+ NSCLC patients treated in 1st line; cited from earlier work.
With `C#Cc1cccc(Nc2ncnc3cc(OCCOC)c(OCCOC)cc23)c1` [erlotinib], the objective response rate is 60-85%.
For the molecule `C=CC(=O)Nc1cc(Nc2nccc(-c3cn(C)c4ccccc34)n2)c(OC)cc1N(C)CCN(C)C` [osimertinib], the objective response rate was 60-85%.

Staying with this assay, now noted: previously untreated EGFR M+ NSCLC patients; cited from earlier work.
As for `C=CC(=O)Nc1cc(Nc2nccc(-c3cn(C)c4ccccc34)n2)c(OC)cc1N(C)CCN(C)C` [osimertinib], the “average duration until disease progression” value was 19 months.

The test system of the next assay is Ba/F3 cells EGFR-indep. + IL-3. Briefly: Ba/F3 proliferation assay (CellTiter-Glo viability), EGFR-independent cells with IL-3. The format is cell-based, murine. The note with it: Mus musculus, BaF3, Ba/F3 EGFR-independent + IL-3. Here is the method:
as §1
As for `Cc1cc(C(=O)Nc2nc3cccc(Cl)c3n2[C@@H]2CCCCN(C(=O)/C=C/CN(C)C)C2)ccn1` [nazartinib, reference compound], the half-maximal inhibitory concentration (IC50) is above 5000 nM.

The test system of a further assay is EGFR M+ T790M-positive NSCLC patients.
Test: not given
The note with it: 2nd line, previously treated with earlier generation EGFR TKI; cited from earlier work.
Regarding `C=CC(=O)Nc1cc(Nc2nccc(-c3cn(C)c4ccccc34)n2)c(OC)cc1N(C)CCN(C)C` [osimertinib], the “patients responding to treatment” value is on record as “Approximately 70%”.

The assay is the same for the next values; noted with them: 2nd line; cited from earlier work.
`C=CC(=O)Nc1cc(Nc2nccc(-c3cn(C)c4ccccc34)n2)c(OC)cc1N(C)CCN(C)C` [osimertinib]: the “average duration until disease progression” value is on record as 10 months.

Source of the values: patent US11174245B2, “Benzimidazole compounds and derivatives as EGFR inhibitors” (Boehringer Ingelheim International GmbH, priority 2018, dated 2021).
